From patent publication US11111251B2, “Positive allosteric modulators of the muscarinic acetylcholine receptor M1” (Vanderbilt University, priority 2016, dated 2021) come the findings set out here.

This test deals with T1, human mAChR M1 (Homo sapiens, UniProt P11229).
T1 sequence (P11229 1-460): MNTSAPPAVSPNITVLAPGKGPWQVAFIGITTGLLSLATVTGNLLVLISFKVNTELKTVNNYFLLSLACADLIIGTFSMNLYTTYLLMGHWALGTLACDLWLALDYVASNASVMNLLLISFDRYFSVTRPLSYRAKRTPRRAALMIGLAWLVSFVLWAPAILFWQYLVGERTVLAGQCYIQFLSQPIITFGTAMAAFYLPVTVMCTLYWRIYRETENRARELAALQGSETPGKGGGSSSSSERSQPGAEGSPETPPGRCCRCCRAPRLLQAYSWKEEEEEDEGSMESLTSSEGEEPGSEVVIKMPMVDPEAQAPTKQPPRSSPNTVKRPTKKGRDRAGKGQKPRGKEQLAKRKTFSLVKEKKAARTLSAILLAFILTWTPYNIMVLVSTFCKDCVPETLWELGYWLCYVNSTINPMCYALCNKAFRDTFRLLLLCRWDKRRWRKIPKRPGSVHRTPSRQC
As to the kind of experiment: mAChR M1 cell-based functional assay: calcium mobilization, positive allosteric modulator mode (increase in EC20 acetylcholine response). The settings on record: for Emax: read-out: Human M1 Emax (%). In outline: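 Calcium-flux assay in CHO-K1 cells stably expressing human M1, loaded with Fluo-4 AM (50 min, 37 °C) and read at 1 Hz. Compound (11-point, 1:3 series) was added at 4 s, EC20 acetylcholine at 144 s and EC80 at 230 s. PAM activity is the concentration-dependent rise in the EC20 response, fitted with a four-parameter logistic.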

Setting [1] is: Table 2, human M1, read-out: Human M1 EC50.
The mark [2] stands for this setting: Table 1, mAChR M1 cell-based functional assay, PAM mode, species not given, read-out: EC50.

Where two headings read alike, the source gives them in different places.

With `Cc1ccc(Cc2cc(C(=O)N[C@@H]3COCC[C@H]3O)nc3c(C)csc23)cn1` [Compound 105], the EC50 under setting [1] turned out to be 825 nM. In addition, the maximal effect (Emax) (Table 2, human M1) came to 87.7%.
As for `COCC(C)NC(=O)c1cc(Cc2ccc(-c3ccn(C)n3)nc2)c2sccc2n1` (centres unmarked) [Compound 424, N-(2-methoxy-1-methyl-ethyl)-7-[[6-(1-methylpyrazol-3-yl)-3-pyridyl]methyl]thieno[3,2-b]pyridine-5-carboxamide], the EC50 under setting [1] was found to be 8470 nM. Also, the Emax (Table 2, human M1) stood at 68.6%.
As to `Cc1ccc(Cc2cc(C(=O)NC3CCCC(O)C3)nc3ccsc23)cn1` (centres unmarked) [Compound 49, N-(3-hydroxycyclohexyl)-7-[(6-methyl-3-pyridyl)methyl]thieno[3,2-b]pyridine-5-carboxamide], the 50% effective concentration (EC50) under setting [2] was > 10000 nM.
Take `Cc1ccc(Cc2cc(C(=O)NC3CCN(C)CC3)nc3c(C)csc23)cn1` [Compound 112, 3-methyl-N-(1-methyl-4-piperidyl)-7-[(6-methyl-3-pyridyl)methyl]thieno[3,2-b]pyridine-5-carboxamide]: the EC50 under setting [1] came out at 5820 nM. Under “Table 2, human M1”, the Emax stood at 36.7%.
On the same counts, the results for `Cn1cc(-c2ccc(Cc3cc(C(=O)N[C@H]4CCOC[C@@H]4O)nc4ccn(C)c34)cn2)cn1` [Compound 468, N-[(3R,4S)-3-hydroxytetrahydropyran-4-yl]-1-methyl-7-[[6-(1-methylpyrazol-4-yl)-3-pyridyl]methyl]pyrrolo[3,2-b]pyridine-5-carboxamide] are 11.8 nM and 70%.
On to `Cn1cc(-c2ccc(Cc3cc(C(=O)NC4CCOCC4(C)C)nc4ccsc34)cc2)cn1` (centres unmarked) [Compound 379, N-(3,3-dimethyltetrahydropyran-4-yl)-7-[[4-(1-methylpyrazol-4-yl)phenyl]methyl]thieno[3,2-b]pyridine-5-carboxamide], for which the EC50 under setting [1] was found to be 150 nM. For the same compound, the Emax (Table 2, human M1) stood at 53.9%.
`Cc1ccc(Oc2cc(C(=O)N[C@H]3CCOC[C@@H]3O)nc3ccsc23)cn1` [Compound 22, N-[(3R,4S)-3-hydroxytetrahydropyran-4-yl]-7-[(6-methyl-3-pyridyl)oxy]thieno[3,2-b]pyridine-5-carboxamide]: under setting [2], the concentration giving a half-maximal response (EC50) was 1790 nM.
Turning to `Cn1ccc2nc(C(=O)N[C@H]3CCCOC3)cc(Cc3ccc(-c4cscn4)cc3)c21` [Compound 462, 1-methyl-N-[(3S)-tetrahydropyran-3-yl]-7-[(4-thiazol-4-ylphenyl)methyl]pyrrolo[3,2-b]pyridine-5-carboxamide], the EC50 under setting [1] was found to be 2050 nM. In addition, the Emax (Table 2, human M1) was determined as 67.9%.
With `Cc1csc2c(Cc3ccc(-n4cccn4)cc3)cc(C(=O)N[C@@H]3COCC[C@H]3O)nc12` [Compound 118], the EC50 under setting [1] came out at 134 nM. In addition, where the note is “Table 2, human M1”, the Emax came to 83.7%.
As to `Cn1ccc(-c2ccc(Cc3cc(C(=O)NC[C@@H]4CCCN4)nc4ccsc34)cn2)n1` [Compound 426], the concentration for a half-maximal effect (EC50) under setting [1] amounted to 290 nM. For the same compound, the Emax (Table 2, human M1) was 62.7%.
On the same counts, the results for `O=C(N[C@@H]1CCOC1)c1cc(Cc2ccc(-c3cscn3)cc2)c2sccc2n1` [Compound 207, N-[(3R)-tetrahydrofuran-3-yl]-7-[(4-thiazol-4-ylphenyl)methyl]thieno[3,2-b]pyridine-5-carboxamide] are 2970 nM and 77%.
With `O=C(N[C@@H]1CCCC[C@H]1O)c1cc(Cc2ccc(C(F)(F)F)nc2)c2sccc2n1` [Compound 90, N-[(1R,2R)-2-hydroxycyclohexyl]-7-[[6-(trifluoromethyl)-3-pyridyl]methyl]thieno[3,2-b]pyridine-5-carboxamide], the EC50 under setting [1] was 154 nM. The Emax (Table 2, human M1) came to 90.7%.
As to `Cc1nc(-c2ccc(Cc3cc(C(=O)N[C@H]4CCCC[C@@H]4O)nc4ccsc34)cc2)cs1` [Compound 194, N-[(1S,2S)-2-hydroxycyclohexyl]-7-[[4-(2-methylthiazol-4-yl)phenyl]methyl]thieno[3,2-b]pyridine-5-carboxamide], the EC50 under setting [1] came to 59.6 nM. Further, the maximum response (Emax) (Table 2, human M1) was determined as 80.7%.
With `Cc1ccc(Cc2cc(C(=O)NC3CCCCNC3=O)nc3c(C)csc23)cn1` (centres unmarked) [Compound 111, 3-methyl-7-[(6-methyl-3-pyridyl)methyl]-N-(2-oxoazepan-3-yl)thieno[3,2-b]pyridine-5-carboxamide], the concentration giving a half-maximal response (EC50) under setting [1] was determined as 2400 nM. In addition, where the note is “Table 2, human M1”, the Emax is 72.5%.
Regarding `Cc1ccc(Oc2cc(C(=O)NCC3CCCO3)nc3ccsc23)cn1` (centres unmarked) [Compound 35, 7-[(6-methyl-3-pyridyl)oxy]-N-(tetrahydrofuran-2-ylmethyl)thieno[3,2-b]pyridine-5-carboxamide], the EC50 under setting [2] was > 10000 nM.
On to `O=C(NC1CC(F)(F)C1)c1ccc(Cc2cc(C(=O)NC3CC(F)(F)C3)nc3ccsc23)cc1` [Compound 408, N-(3,3-difluorocyclobutyl)-7-[[4-[(3,3-difluorocyclobutyl)carbamoyl]phenyl]methyl]thieno[3,2-b]pyridine-5-carboxamide], for which the EC50 under setting [1] was 397 nM. For the same compound, the Emax (Table 2, human M1) worked out at 45%.
Turning to `Cn1ccc(-c2ccc(Cc3cc(C(=O)NC4CCOC(C)(C)C4)nc4ccsc34)cc2)n1` (centres unmarked) [Compound 325, N-(2,2-dimethyltetrahydropyran-4-yl)-7-[[4-(1-methylpyrazol-3-yl)phenyl]methyl]thieno[3,2-b]pyridine-5-carboxamide], the EC50 under setting [1] worked out at 907 nM. Also, the Emax (Table 2, human M1) was found to be 83.3%.
Regarding `Cc1ccc(Cc2cc(C(=O)NC3CCCCC3)nc3c(C)csc23)cn1` [Compound 101, N-cyclohexyl-3-methyl-7-[(6-methyl-3-pyridyl)methyl]thieno[3,2-b]pyridine-5-carboxamide], under setting [1], the concentration for a half-maximal effect (EC50) amounted to 4960 nM. Further, the Emax (Table 2, human M1) came out at 75.7%.
As for `Cc1ccc(Oc2cc(C(=O)N[C@H]3COCC[C@@H]3O)nc3ccsc23)cn1` [Compound 23, N-[(3S,4S)-4-hydroxytetrahydropyran-3-yl]-7-[(6-methyl-3-pyridyl)oxy]thieno[3,2-b]pyridine-5-carboxamide], under setting [2], the EC50 was > 10000 nM.
In the case of `Cn1ccc(-c2ccc(Cc3cc(C(=O)NC4CC5(COC5)C4)nc4ccn(C)c34)cn2)n1` [Compound 507, 1-methyl-7-[[6-(1-methylpyrazol-3-yl)-3-pyridyl]methyl]-N-(2-oxaspiro[3.3]heptan-6-yl)pyrrolo[3,2-b]pyridine-5-carboxamide;], under setting [1], the EC50 amounted to 985 nM. Moreover, the Emax (Table 2, human M1) was determined as 77.6%.
As to `Cc1ccc(Oc2cc(C(=O)NCC(O)C(F)(F)F)nc3ccsc23)cn1` (centres unmarked) [Compound 31, 7-[(6-methyl-3-pyridyl)oxy]-N-(3,3,3-trifluoro-2-hydroxy-propyl)thieno[3,2-b]pyridine-5-carboxamide], the EC50 under setting [2] was > 10000 nM.
As for `Cn1ccc(-c2ccc(Cc3cc(C(=O)NC4CC(F)C4)nc4ccsc34)cn2)n1` (centres unmarked) [Compound 419, N-(3-fluorocyclobutyl)-7-[[6-(1-methylpyrazol-3-yl)-3-pyridyl]methyl]thieno[3,2-b]pyridine-5-carboxamide], the EC50 under setting [1] amounted to 760 nM. In addition, the Emax (Table 2, human M1) is 70.1%.
As to `COCCNC(=O)c1cc(Cc2ccc(-c3cncs3)cc2)c2sccc2n1` [Compound 403, N-(2-methoxyethyl)-7-[(4-thiazol-5-ylphenyl)methyl]thieno[3,2-b]pyridine-5-carboxamide], the EC50 under setting [1] came out at 6980 nM. Moreover, the Emax (Table 2, human M1) came to 60.8%.
On the same counts, the results for `O=C(N[C@@H]1CCCC[C@H]1O)c1cc(Cc2ccc(-n3cccn3)cc2)c2sccc2n1` [Compound 73, N-[(1R,2R)-2-hydroxycyclohexyl]-7-[(4-pyrazol-1-ylphenyl)methyl]thieno[3,2-b]pyridine-5-carboxamide] are 50.1 nM and 87.9%.
As to `Cc1csc2c(Cc3ccc(-n4cccn4)cc3)cc(C(=O)N[C@@H]3CCOC[C@H]3O)nc12` [Compound 117, N-[(3S,4R)-3-hydroxytetrahydropyran-4-yl]-3-methyl-7-[(4-pyrazol-1-ylphenyl)methyl]thieno[3,2-b]pyridine-5-carboxamide], under setting [1], the EC50 turned out to be 83.3 nM. Besides, the Emax (Table 2, human M1) amounted to 76.6%.
In the case of `O=C(NC[C@@H]1CCCO1)c1cc(Cc2ccc(-n3cccn3)cc2)c2sccc2n1` [Compound 286, 7-[(4-pyrazol-1-ylphenyl)methyl]-N-[[(2S)-tetrahydrofuran-2-yl]methyl]thieno[3,2-b]pyridine-5-carboxamide], the EC50 under setting [1] was 203 nM. The Emax (Table 2, human M1) was 69.3%.
`Cn1cc(-c2cc(F)c(Cc3cc(C(=O)N[C@H]4CCCCC[C@@H]4O)nc4ccsc34)c(F)c2)cn1` [Compound 61, 7-[[2,6-difluoro-4-(1-methylpyrazol-4-yl)phenyl]methyl]-N-[(1S,2S)-2-hydroxycycloheptyl]thieno[3,2-b]pyridine-5-carboxamide]: the EC50 under setting [1] was > 10000 nM. The Emax (Table 2, human M1) was determined as 64.8%.
As to `O=C(N[C@H]1CCCC[C@@H]1O)c1cc(Cc2ccc(-c3cscn3)cc2)c2sccc2n1` [Compound 217, N-[(1S,2S)-2-hydroxycyclohexyl]-7-[(4-thiazol-4-ylphenyl)methyl]thieno[3,2-b]pyridine-5-carboxamide], the EC50 under setting [1] was 45.4 nM. Besides, where the note is “Table 2, human M1”, the maximal effect (Emax) turned out to be 74.8%.
On the same counts, the results for `CC1COCCC1NC(=O)c1cc(Cc2ccc(-n3cccn3)cc2)c2sccc2n1` (centres unmarked) [Compound 444, N-(3-methyltetrahydropyran-4-yl)-7-[(4-pyrazol-1-ylphenyl)methyl]thieno[3,2-b]pyridine-5-carboxamide] are 263 nM and 71%.

One may read the EC50 as the concentration at which the effect is half-maximal. As a reminder, the Emax is the size of the effect at its maximum, as opposed to the concentration needed.
